# Publication PMC9716094, “Synthesis of novel amidines via one-pot three component reactions: Selective topoisomerase I inhibitors with antiproliferative properties” (Frontiers in Chemistry, 2022)
# Columns and labels:
# [1] = molecular target: T1, recombinant human DNA topo I (Homo sapiens, UniProt P11387); test: Topo I inhibitory assay (pBR322 relaxation); format: biochemical
# T1 construct: purchased Topo GEN INC., USA
# T1 sequence (P11387 1-765): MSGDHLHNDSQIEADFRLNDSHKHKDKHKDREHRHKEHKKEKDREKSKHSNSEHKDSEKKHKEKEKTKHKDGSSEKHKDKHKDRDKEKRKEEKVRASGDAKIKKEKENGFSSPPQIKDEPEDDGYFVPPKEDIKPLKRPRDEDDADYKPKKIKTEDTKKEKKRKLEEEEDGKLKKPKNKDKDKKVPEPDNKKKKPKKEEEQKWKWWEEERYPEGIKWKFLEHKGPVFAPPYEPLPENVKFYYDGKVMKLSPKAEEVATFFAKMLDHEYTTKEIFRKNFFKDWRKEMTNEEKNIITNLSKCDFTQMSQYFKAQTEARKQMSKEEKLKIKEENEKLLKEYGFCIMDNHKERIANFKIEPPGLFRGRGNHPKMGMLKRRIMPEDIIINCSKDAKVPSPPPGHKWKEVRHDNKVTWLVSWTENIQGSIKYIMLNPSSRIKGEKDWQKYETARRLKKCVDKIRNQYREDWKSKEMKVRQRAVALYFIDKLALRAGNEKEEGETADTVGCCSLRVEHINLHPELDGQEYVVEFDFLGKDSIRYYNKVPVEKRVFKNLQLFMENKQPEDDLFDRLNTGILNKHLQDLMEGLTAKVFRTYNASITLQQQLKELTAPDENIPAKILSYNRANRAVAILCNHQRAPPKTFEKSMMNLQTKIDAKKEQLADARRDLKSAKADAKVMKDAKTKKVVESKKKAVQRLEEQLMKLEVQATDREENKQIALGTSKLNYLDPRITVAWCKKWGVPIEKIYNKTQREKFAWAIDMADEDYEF
# Experimental: (§1) All the tested compounds were dissolved in DMSO and the DNA topoisomerase I and II inhibitory activity of each compound was measured as follows according to previously reported methods. Mixture comprising of 100 ng supercoiled pBR322 plasmid DNA (Thermo Scientific, USA) and 0.2 ~ 1 unit of recombinant human DNA topo I (Topo GEN INC., USA) or topo IIα (USB Corp., USA) was incubated with or without the prepared compounds in the assay buffer (For topo I, 10 mM Tris-HCl (pH 7.9), 150 mM NaCl and 0.1% BSA, 0.1 mM spermidine and 5% glycerol; for topo II, 10 mM Tris-HCl (pH 7.9), 50 mM NaCl, 50 mM KCl, 5 mM MgCl2, 1 mM EDTA, 1 mM ATP and […] BSA) for 30 min at 37 ◦C. The reaction with final volume of 10 μL was stopped by adding the topo stop buffer (For topo I, 10% SDS solution containing 0.2% bromophenol blue, 0.2% xylene cyanol and 30% glycerol; for topo II, 7 mM EDTA). The reaction products were electrophoresed on 0.8% agarose gel at 50 V for 1 h with TAE electrophoresis buffer. The gels were stained in an EtBr solution (0.5 mg/mL) and visualized by transillumination with UV light and were quantitated using Alpha Tech ImagerTM (Alpha Innotech Corp., USA).
# [2] = system: MCF-7 (breast cancer cell line); test: Antiproliferative assay, MCF-7; format: cell-based; conditions: Homo sapiens, MCF7; read-out: Antiproliferative activity IC50 ± SEM, MCF-7
# Source text: (§2) See Supplementary Appendix S1A.
# (§3) DMSO (0.1%) was used as control.
# [3] = system: four cancer cell lines (A-549, MCF-7, Panc-1, HT-29); test: Antiproliferative assay, average over the four cancer cell lines (GI50); conditions: for IC50: read-out: Antiproliferative activity IC50, Average (mean GI50); for Fold less potent than the reference doxorubicin (GI50): mean GI50 compared with doxorubicin
# Experimental: (§4) The IC50 of each compound was calculated using doxorubicin as the reference.
# (§5) To explore the antiproliferative potential of compounds MTT assay was performed according to previously reported procedure using different cell lines to explore the antiproliferative potential of compounds propidium iodide fluorescence assay was performed using different cell lines. To calculate the total nuclear DNA, a fluorescent dye (propidium iodide, PI) is used which can attach to the DNA, thus offering a quick and precise technique. PI cannot pass through the cell membrane and its signal intensity can be considered as directly proportional to quantity of cellular DNA. Cells whose cell membranes are damaged or have changed permeability are counted as dead ones. The assay was performed by seeding the cells of different cell lines at a density of 3000-7500 cells/well (in 200µl medium) in culture plates followed by incubation for 24h at 37 °C in humidified 5% CO2/95% air atmospheric conditions. The medium was removed; the compounds were added to the plates at 10 µM concentrations (in 0.1% DMSO) in triplicates, followed by incubation for 48 h. DMSO (0.1%) was used as control. After incubation, medium was removed followed by the addition of PI (25 µl, 50µg/mL in water/medium) to each well of the plates. At -80 °C, the plates were allowed to freeze for 24 h, followed by thawing at 25 °C. A fluorometer (Polar-Star BMG Tech) was used to record the readings at excitation and emission wavelengths of 530 and 620 nm for each well. The percentage cytotoxicity of compounds was calculated using the following formula:
# [4] = system: HT-29 (colon cancer cell line); test: Antiproliferative assay, HT-29; conditions: Homo sapiens, HT-29, read-out: Antiproliferative activity IC50 ± SEM, HT-29
# Experimental: as §4, §5
# [5] = system: A-549 (epithelial cancer cell line); test: Antiproliferative assay, A-549; format: cell-based; conditions: Homo sapiens, A549; read-out: Antiproliferative activity IC50 ± SEM, A-549
# Source text: as §2, §3
# [6] = Cell viability assay (MTT) on normal cell line; format: cell-based; conditions: human, MCF-10A mammary epithelial cells, 50 µM of compound;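 also: values are percent cell viability not percent inhibition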
# Experimental: To study the effect of 4a-l and 5a-c on normal cell lines, a cell viability assay was done using the MCF-10A (human mammary gland epithelial) cell line ([Abdelbaset et al., 2019]; [Al-Wahaibi et al., 2020]). This study uses a concentration of 50 µM of the investigated compound for 4 days, after which cell viability is evaluated.
# To study the effect of 4a-l and 5a-c on normal cell lines, a cell viability assay was done using the MCF-10A (human mammary gland epithelial) cell line ([Abdelbaset et al., 2019]; [Al-Wahaibi et al., 2020]). See Supplementary Appendix S1A.
# MTT assay was carried out to study the effect of compounds on mammary epithelial cells (MCF-10A). The medium in which cells were propagated contained Dulbecco's modified Eagle's medium (DMEM)/ Ham's F-12 medium (1:1) supplemented with epidermal growth factor (20 ng/mL), hydrocortisone (500 ng/mL), insulin (10 μg/mL), 2 mM glutamine and 10% fetal calf serum. After every 2-3 days, the cells were passaged using trypsin ethylenediamine tetra acetic acid (EDTA). The cells were seeded at a density of 10^4 cells mL^-1 in flat-bottomed culture plates containing 96 wells each. After 24 h, medium was removed from the plates and the compounds in (in 0.1% DMSO) were added (in 200 μL medium to yield a final concentration of 0.1% v/v) to the wells of plates. A single compound was designated with four wells followed by incubation of plates for 96h at 37°C. After incubation, medium was removed completely from the plates followed by addition of MTT (0.4 mg/mL in medium) to each well and subsequent incubation of plates for 3h. MTT (along with the medium) was removed and DMSO (150μL) was added to each well of the culture plates, followed by vortexing and subsequent measurement of absorbance (at 540 nm) using microplate reader. The data are shown as percentage inhibition of proliferation in comparison with controls containing 0.1% DMSO.
# [7] = system: Panc-1 (pancreas cancer cell line); test: Antiproliferative assay, Panc-1; format: cell-based; conditions: Homo sapiens, read-out: Antiproliferative activity IC50 ± SEM, Panc-1
# Source text: as §2, §3
# topo IIα = molecular target: T2, topo IIα (Homo sapiens, UniProt P11388); test: Topo IIα inhibitory assay (pBR322 relaxation); format: biochemical
# T2 construct: purchased USB Corp., USA
# Experimental: as §1
# T2 sequence (P11388 whole entry): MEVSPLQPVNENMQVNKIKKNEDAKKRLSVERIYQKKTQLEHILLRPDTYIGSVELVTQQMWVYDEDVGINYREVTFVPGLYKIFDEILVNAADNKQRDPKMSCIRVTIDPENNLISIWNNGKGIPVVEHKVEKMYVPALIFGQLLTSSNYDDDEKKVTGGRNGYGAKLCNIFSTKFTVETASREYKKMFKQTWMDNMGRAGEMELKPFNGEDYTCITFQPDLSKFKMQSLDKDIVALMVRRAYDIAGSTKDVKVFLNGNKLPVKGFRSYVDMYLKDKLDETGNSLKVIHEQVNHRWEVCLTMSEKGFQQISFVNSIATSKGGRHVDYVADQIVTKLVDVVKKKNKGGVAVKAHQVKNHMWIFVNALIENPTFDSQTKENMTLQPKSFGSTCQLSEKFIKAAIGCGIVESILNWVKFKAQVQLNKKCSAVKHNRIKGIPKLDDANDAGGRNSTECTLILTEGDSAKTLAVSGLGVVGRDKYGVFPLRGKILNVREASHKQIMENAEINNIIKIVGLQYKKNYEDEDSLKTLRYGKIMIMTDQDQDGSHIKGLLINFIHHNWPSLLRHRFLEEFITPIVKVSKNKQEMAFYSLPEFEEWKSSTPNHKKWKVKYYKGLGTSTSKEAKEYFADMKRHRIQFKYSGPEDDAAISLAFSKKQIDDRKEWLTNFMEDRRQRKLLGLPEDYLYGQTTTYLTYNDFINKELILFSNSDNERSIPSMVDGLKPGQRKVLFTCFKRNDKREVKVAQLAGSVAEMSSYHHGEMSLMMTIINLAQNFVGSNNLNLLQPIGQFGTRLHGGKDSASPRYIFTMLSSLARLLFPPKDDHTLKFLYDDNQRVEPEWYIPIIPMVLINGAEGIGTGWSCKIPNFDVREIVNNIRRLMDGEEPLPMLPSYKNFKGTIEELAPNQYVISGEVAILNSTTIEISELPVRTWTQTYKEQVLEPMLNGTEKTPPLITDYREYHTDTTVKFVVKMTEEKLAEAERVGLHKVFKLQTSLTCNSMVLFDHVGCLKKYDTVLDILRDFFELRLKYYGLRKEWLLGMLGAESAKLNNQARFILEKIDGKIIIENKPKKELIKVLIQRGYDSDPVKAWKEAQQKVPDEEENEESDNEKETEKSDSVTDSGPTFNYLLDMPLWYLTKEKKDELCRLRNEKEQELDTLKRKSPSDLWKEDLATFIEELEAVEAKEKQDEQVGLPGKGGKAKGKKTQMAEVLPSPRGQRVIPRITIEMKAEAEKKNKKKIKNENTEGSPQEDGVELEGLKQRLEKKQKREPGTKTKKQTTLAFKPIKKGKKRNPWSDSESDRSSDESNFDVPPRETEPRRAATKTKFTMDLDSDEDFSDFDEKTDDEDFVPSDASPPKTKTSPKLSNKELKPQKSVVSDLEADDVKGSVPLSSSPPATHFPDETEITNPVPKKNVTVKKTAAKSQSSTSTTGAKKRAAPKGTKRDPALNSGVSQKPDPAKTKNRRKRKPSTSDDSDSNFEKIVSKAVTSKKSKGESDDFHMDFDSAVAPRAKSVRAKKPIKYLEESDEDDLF
Structure (SMILES),melting point [°C],IC50 [2] [µM],IC50 [3] [µM],IC50 [4] [µM],IC50 [5] [µM],IC50 [7] [µM],inhibition at 20 µM (topo IIα) [%],inhibition at 100 µM (topo IIα) [%],Fold less potent than the reference doxorubicin (GI50) [3],inhibition at 20 µM [1] [%],inhibition at 100 µM [1] [%],"viability at 4 days, 50 µM [6] [%]"
"CC[C@@]1(O)C(=O)OCc2c1cc1n(c2=O)Cc2cc3ccccc3nc2-1 [Camptothecin, reference compound]",,,,,,,,,,40,82.6,
"O=c1cc(/N=C(\C2CCCC2)N2CCCCC2)c2ccccc2[nH]1 [Compound 4a, (E) 4-((Cyclopentyl(piperidin-1-yl)methylene)amino)quinolin-2(1H)-one]",210,5.1 ± 0.5,5.5,5.5 ± 0.5,5.9 ± 0.5,5.4 ± 0.5,,,,,,85
"Cc1ccc2[nH]c(=O)cc(/N=C(\C3CCCC3)N3CCCCC3)c2c1 [Compound 4b, (E) 4-((Cyclopentyl(piperidin-1-yl)methylene)amino)-6-methylquinolin-2(1H)-one]",222,1.4 ± 0.1,1.5,1.6 ± 0.1,1.5 ± 0.1,1.5 ± 0.1,22.3,57.2,,29.6,65.9,92
"COc1ccc2[nH]c(=O)cc(/N=C(\C3CCCC3)N3CCCCC3)c2c1 [Compound 4c, (E) 4-((Cyclopentyl(piperidin-1-yl)methylene)amino)-6-methoxyquinolin-2(1H)-one]",250,1.9 ± 0.2,2.1,2.2 ± 0.2,2.3 ± 0.2,2.05 ± 0.2,,,,,,91
"Cn1c(=O)cc(/N=C(\C2CCCC2)N2CCCCC2)c2ccccc21 [Compound 4f, (E) 4-((Cyclopentyl(piperidin-1-yl)methylene)amino)-1-methylquinolin-2(1H)-one]",142,7.5 ± 0.8,7.8,7.7 ± 0.8,8 ± 0.8,7.9 ± 0.8,,,,,,87
"O=c1cc(/N=C(\C2CCCC2)N2CCOCC2)c2ccccc2[nH]1 [Compound 4g, (E) 4-((Cyclopentyl(morpholino)methylene)amino)quinolin-2(1H)-one]",,5.9 ± 0.6,6.1,6.2 ± 0.6,6.3 ± 0.6,6.1 ± 0.6,,,at least 6 fold,,,89
"Cc1ccc2[nH]c(=O)cc(/N=C(\C3CCCC3)N3CCOCC3)c2c1 [Compound 4h, (E) 4-((Cyclopentyl(morpholino)methylene)amino)-6-methylquinolin-2(1H)-one]",226,1.9 ± 0.2,2.3,2.3 ± 0.2,2.6 ± 0.2,2.3 ± 0.2,,,,,,91
"O=c1cc(/N=C(\C2CCCC2)N2CCOCC2)c2cc(Cl)ccc2[nH]1 [Compound 4j, (E) 4-((Cyclopentyl(morpholino)methylene)amino)-6-chloroquinolin-2(1H)-one]",247,2.9 ± 0.3,3.3,3.5 ± 0.3,3.7 ± 0.3,3.1 ± 0.3,,,,,,89

# More lines, main results first:
melting point [°C],IC50 [2] [µM],IC50 [3] [µM],IC50 [4] [µM],IC50 [5] [µM],IC50 [7] [µM],inhibition at 20 µM (topo IIα) [%],inhibition at 100 µM (topo IIα) [%],Fold less potent than the reference doxorubicin (GI50) [3],Structure (SMILES),inhibition at 20 µM [1] [%],inhibition at 100 µM [1] [%],"viability at 4 days, 50 µM [6] [%]"
220,4.05 ± 0.4,4.2,4.1 ± 0.4,4.6 ± 0.4,4.2 ± 0.4,,,,"Cc1cccc2c(/N=C(\C3CCCC3)N3CCOCC3)cc(=O)[nH]c12 [Compound 4k, (E) 4-((Cyclopentyl(morpholino)methylene)amino)-8-methylquinolin-2(1H)-one]",,,91
,7.1 ± 0.7,7.3,7.2 ± 0.7,7.6 ± 0.7,7.4 ± 0.7,,,at least 6 fold,"Cn1c(=O)cc(/N=C(\C2CCCC2)N2CCOCC2)c2ccccc21 [Compound 4l, (E) 4-((Cyclopentyl(morpholino)methylene)amino)-1-methylquinolin-2(1H)-one]",,,89
360,4.7 ± 0.4,5,5.1 ± 0.3,5.15 ± 0.3,4.9 ± 0.3,,,,"O=c1cc(/N=C(\C2CCCC2)N2CCN(/C(=N/c3cc(=O)[nH]c4ccccc34)C3CCCC3)CC2)c2ccccc2[nH]1 [Compound 5a, 4,4'-((1E,1′E)-(piperazine-1,4-diylbis(cyclopentylmethanylylidene))bis(azanylylid-ene))bis(quinolin-2(1H)-one)]",,,91
355,3.7 ± 0.3,3.9,3.8 ± 0.3,4.1 ± 0.3,3.9 ± 0.3,,,,"Cc1ccc2[nH]c(=O)cc(/N=C(\C3CCCC3)N3CCN(/C(=N/c4cc(=O)[nH]c5ccc(C)cc45)C4CCCC4)CC3)c2c1 [Compound 5b, 4,4'-((1E,1′E)-(piperazine-1,4-diylbis(cyclopentylmethanylylidene))bis(azanylylid-ene))bis(6-methylquinolin-2(1H)-one)]",,,91
,0.9 ± 0.1,1.1,1 ± 0.1,1.2 ± 0.1,1.4 ± 0.2,,,,"COc1cccc2c1C(=O)c1c(O)c3c(c(O)c1C2=O)C[C@@](O)(C(=O)CO)C[C@@H]3O[C@H]1C[C@H](N)[C@H](O)[C@H](C)O1 [Doxorubicin, reference compound]",,,
,,,,,,66,83.7,,"COc1cc([C@@H]2c3cc4c(cc3[C@@H](O[C@@H]3O[C@@H]5CO[C@@H](C)O[C@H]5[C@H](O)[C@H]3O)[C@H]3COC(=O)[C@H]23)OCO4)cc(OC)c1O [Etoposide, reference compound]",,,
